Reference: patent US20120190707A1, “SELECTIVE INHIBITORS OF AKT AND METHODS OF USING SAME” (priority 2008, published 2012)

Tests used:
PC3 prostate tumor cells = assay: Cell death by trypan blue staining, PC3; type: cell-based; conditions: PC3, 5 micro.M, within 4 hours
Method: (§1) (A) MeWo melanoma cells growing in 60 mm plates were treated with the indicated concentration of the inhibitor for 4 h before proteins were prepared for western blot analysis using the indicated antibodies. Level of beta.actin was monitored as a control for protein loading. (B) Experiment was performed as indicated in panel A, except that cells were harvested after 24 h for analysis of cell death using trypan blue staining. (C) Melanoma (MeWo), prostate cancer (PC3) and breast cancer (MCF7) cells were treated with BI-69A11 at the indicated concentrations; levels of AKT phosphorylation or expression were assessed 4 h later. The level of beta.actin used as a control for protein loading. (D) Experiment was performed as indicated in panel C, except that cells were harvested after 4 h for analysis of cell death using trypan blue staining.
(§2) For the proliferation assays, cells were treated as described above. However, instead of scraping cells into the serum-free medium, floating cells were collected in a 15 mL centrifuge tube whereas adherent cells trypsinized gently. The total cell population was pooled and counted on a hemocytometer after staining with Trypan Blue.

MCF7 cells = assay: Cell death by trypan blue staining, MCF7; type: cell-based; conditions: 5 micro.M, 4 hours
Method: as §1, §2

[1] = test system: UACC 903 melanoma xenografts; assay: UACC 903 melanoma xenografts in nude mice; type: in vivo
Method: (A) Nude mice were subcutaneously injected with UACC 903 cells and tumors were allowed to reach an approximate size of 1 mm^3 before intraperitoneal treatment was started; treatment was performed twice per week for 3 weeks with the indicated concentrations of BI-69A11. Each of the experimental groups consisted of 10 mice that were subjected to treatment with the indicated concentration of BI-69A11. […] Tumors were measured with calipers at the indicated time points. The mice were sacrificed and tumors harvested at the end of this period were measured and weighed to determine tumor volume and mass. Blue bars represent control-vehicle treated group; yellow bars represent the 5 mg/Kg treatment group; the orange and green bars represent the 1 and 2 mg/Kg treatment groups, respectively. (B) Analysis of cell death in the tumors was performed using Tunel staining. Shown are representative pictures for control tumors (right) and a treatment group (5 mg/Kg; left). (C) Quantification of Tunel staining in the different tumor groups. Samples from each of the tumors were subjected to Tunel staining which was quantified by Aperio ImageScope and confirmed by visual inspection of representative samples. The percentage of Tunel positive cells is indicated in the graph. […]
In light of the efficient cell death elicited by BI-69A11, we assessed its activity on tumor growth in mouse xenografts. […]
For the tumor studies, UACC 903 cells […] were injected subcutaneously and tumor size was monitored using calipers twice per week. […] At the end of the study, tumors were harvested, weighed and measured.
For the tunel assay and quantitative analysis, the detection of nuclei with fragmented DNA by terminal deoxyribonucleotidyl transferase-mediated dUTP nick end labeling (TUNEL) was accomplished using the ApopTag Peroxidase In situ Apoptosis Detection Kit (Chemicon, Temecula, Calif., US) according to the instructions of the manufacturer. […]

NF-kB pathway = assay: TNF-α stimulated NF-kB pathway (IKK, IkB) western analysis in UACC903 cells; type: cell-based, human; conditions: 10 μM for 1 h prior to 20 ng/ml TNF-α
Method: UACC903 melanoma cells were exposed to 10 μM BI-69A11 or vehicle control for 1 h prior to treatment with 20 ng/ml TNF-α. Cells were harvested at the indicated time points and whole cell lysates were subjected to western analysis for phosphorylated IKK, total IKK, phosphorylated IkB, total IkB, and PLCγ (as loading control).
FIG. 11 describes how selected BI-69A11 analogs inhibit the NFkB pathway. UACC903 melanoma cells were exposed to vehicle control, 10 μM BI-69A11, or 10 μM analog for 1 h prior to stimulation with 20 ng/ml TNF-α as indicated. Cells were harvested at 5 min post-stimulation and whole cell lysates were subjected to western analysis for phosphorylated IKK, total IKK, phosphorylated IkB, total IkB, and […] (as loading control).
We first tested whether BI-69A11 inhibited the activation of the canonical NF-kB pathway (FIG. 10) in intact cells. […] In contrast, in cells treated with BI-69A11, both IKK and IkB phosphorylation were inhibited in response to TNF-a stimulation. Furthermore, the degradation of IkB protein was inhibited.
We next tested the ability of selected BI-69A11 analogs to inhibit the NF-kB pathway (FIG. 11). In this experiment, UACC903 cells were treated with vehicle, BI-69A11 or analog, stimulated with TNF-a, and harvested at 5 minutes post-stimulation. […]

[2] = 0.5-2.0 mg/kg intra-peritoneally twice per week, 3 weeks

O=C(/C=C/c1nc2ccccc2[nH]1)c1c(O)nc2ccc(Cl)cc2c1-c1ccccc1 [Compound 2, (E)-3-(3-(1H-benzo[d]imidazol-2-yl)acryloyl)-6-chloro-4-phenylquinolin-2(1H)-one]
cell death (PC3 prostate tumor cells): about 25% | viability of MCF7 cells (MCF7 cells): did not affect | growth of the melanoma tumors [1, 2]: effectively inhibits further growth | regression of the tumors [1, 2]: efficient regression | apoptosis in tumors by Tunel staining, compared with control tumors ([1]; treatment groups 0.5-2.0 mg/kg): higher degrees of apoptosis | degradation of IkB protein (NF-kB pathway): inhibited | IKK and IkB phosphorylation in response to TNF-a stimulation (NF-kB pathway; time course): inhibited
